PMC4055585, “Pharmacokinetics of Anti-HBV Polyoxometalate in Rats” (PLoS ONE, 2014)
Where “and” joins values, the source holds several entries; their conditions need not be identical. Identical values can stand only once. Like-named read-outs stand apart in the source and are kept apart here.

Legend:
[1] = Urine and feces excretion after oral administration; format: in vivo, Wistar rats; conditions: oral 180 mg/kg
Protocol: Rats were placed in metabolism cages during the experiment to facilitate urine and feces collection. Urine and feces were collected during 0–1 h, 1–2, 2–4, 4–8, 8–12, 12–24, 24–48 and […]. Urine volume and feces weight were measured, and samples were frozen at −20°C until analysis.
(§1) The urine, bile, postdialysis serum and buffer samples were aliquots into 0.1 mL, treated in the same way as plasma samples.
(§2) Feces, fat and pancreas samples were aliquots into 0.1 g and dipped in 1 mL concentrated H2SO4 in test tubes. […] 3 mL concentrated HNO3was added at 120°C for 12 h until thorough dissolution.
(§3) Concentrations of Compound 1 were determined by atomic spectrometry. Samples were analyzed directly by ICP-MS. Polyoxometalate concentrations were estimated directly from measured tungsten concentrations.

hepatitis B virus = tested on: hepatitis B virus; parameters: method as in PMID 22264474; conditions: cited from earlier work
[2] = Bile excretion after oral administration (bile duct cannulation); format: in vivo, Rats; conditions: oral 180 mg/kg, % of the drug tested
Protocol: Bile excretion: Rats (n = 6, male and female in equal) were anesthetized with diethyl ether, and bile duct were cannulated with a polyethylene tube. After recovery from anesthesia, rates were orally administered Compound 1 at a dose of 180 mg/kg BW. The bile samples were collected during 0–1, 1–2, 2–4, 4–8, 8–12, 12–24 and 24–48 h by bile duct cannulation. The bile volume was measured, and samples were frozen at −20°C until analysis.
as §1, §3

[3] = Tissue distribution after oral administration; format: in vivo, Wistar rats; conditions: oral 180 mg/kg
Protocol: Five rats for each duration, 2, 24, 48 and 96 h post-dose, were sacrificed by decapitation after administration of Compound 1. The whole brain, heart, liver, spleen, lung, kidney, uterus, testis, ovary, epididymis, stomach, intestine, pancreas, thymus, fat, and skeletal muscle were rapidly dissected and harvested. All tissues and organs were weighed on an analytical balance and frozen at −20°C until analysis.
The tissue samples (except for fat and pancreas) were aliquots into 0.1 g and dipped in 3 mL concentrated HNO3 in test tubes.
as §2, §3

[4] = rat, in vivo; for AUC0–96 (area under the curve up to 96 h) / AUC0–∞ (area under the total concentration-time curve) / CL (systemic clearance) / Cmax (maximum concentration) / MRT (mean residence time) / Tmax (time of peak concentration) / Vd (steady-state volume of distribution) / ke (elimination rate constant) / t1/2 (half-life): po
[5] = rat, in vivo, iv, 180 mg/kg
rat plasma protein = experiment: Plasma protein binding by equilibrium dialysis; format: in vitro ADME; conditions: for Protein binding rate, Mean: six parallel samples
Protocol: Various amounts of Compound 1 were added to pooled male rat serum to yield concentrations of 9, 18 and 36 mg/mL. The dialysis membrane was Spectrapor II (Beijing Dingguo Changsheng Biotechnology Co. Ltd, China) with a molecular weight cutoff of 12,000 to 14,000. […] Dialyzed serum and buffer volumes were collected and frozen at −20°C until analysis, and binding data were corrected for fluid shifts that occurred during dialysis. Experiments were done in six parallel samples. The following formula was used to calculate plasma protein binding rate of Compound 1 under different concentrations: [drawing 1]
Cplasma: concentration of Compound 1;
Cbuffer: concentration of Compound 1 in buffer
as §1

[6] = parameters: method as in earlier work; conditions: cited from earlier work

Substance: Cs2K4Na[SiW9Nb3O40].H2O [Compound 1]
- total excreted, % of the total amount administered ([1]; till 48 h): about 30.84%
- total excreted, % of the total amount administered ([1]; till 72 h): about 31.1%
- secretion of HBV antigens and HBV DNA (hepatitis B virus; HepG2.2.15 cells): effectively suppressed
- activity against HBV (hepatitis B virus; HepG 2.2.15): high activity against HBV
- toxicity (hepatitis B virus; HepG 2.2.15): low toxicity
- accumulative excretion rate, bile [2]: about 0.42%
- content in kidney and liver relative to the other tissues [3]: 10–70 times
- deposition in the brain [3]: Less deposition
- tissue with highest deposition ([3]; 16 tissues): kidney, followed by the stomach, intestine and liver
- content in tissues at 96 h relative to peak content ([3]; 96 h): less than 10%
- Tmax range [4]: 6 to 180 min
- half-life range [4]: 20 to 30 h
- absolute bioavailability ([4]; 180 mg/kg): 14.67%
- AUC0–96 (area under the curve up to 96 h) ([4]; 45 mg/kg): 150.9 ± 87.15 µg·h/mL
- AUC0–∞ (area under the total concentration-time curve) ([4]; 45 mg/kg): 165.1 ± 94.98 µg·h/mL
- CL (systemic clearance) ([4]; 45 mg/kg): 86.96 ± 42.45 mL/h
- Cmax (maximum concentration) ([4]; 45 mg/kg): 11130 ± 8370 ng/mL
- MRT (mean residence time) ([4]; 45 mg/kg): 36.45±4.495 H
- Tmax (time of peak concentration) ([4]; 45 mg/kg): 2.000±0.632 H
- Vd (steady-state volume of distribution) ([4]; 45 mg/kg): 3437 ± 1593 mL
- ke (elimination rate constant) ([4]; 45 mg/kg): 0.025 ± 0.002 h⁻¹
- t1/2 (half-life) ([4]; 45 mg/kg): 27.91±2.606 H
- AUC0–96 (area under the curve up to 96 h) ([4]; 180 mg/kg): 373.9 ± 112.7 µg·h/mL
- AUC0–∞ (area under the total concentration-time curve) ([4]; 180 mg/kg): 410.1 ± 128.5 µg·h/mL
- CL (systemic clearance) ([4]; 180 mg/kg): 117.1 ± 29.49 mL/h
- Cmax (maximum concentration) ([4]; 180 mg/kg): 30850 ± 14250 ng/mL
- MRT (mean residence time) ([4]; 180 mg/kg): 35.42±5.940 H
- Tmax (time of peak concentration) ([4]; 180 mg/kg): 1.833±0.753 H
- Vd (steady-state volume of distribution) ([4]; 180 mg/kg): 4620 ± 829.9 mL
- ke (elimination rate constant) ([4]; 180 mg/kg): 0.025 ± 0.003 h⁻¹
- t1/2 (half-life) ([4]; 180 mg/kg): 27.88±3.221 H
- AUC0–96 (area under the curve up to 96 h) ([4]; 720 mg/kg): 1216 ± 402.2 µg·h/mL
- AUC0–∞ (area under the total concentration-time curve) ([4]; 720 mg/kg): 1316 ± 449.7 µg·h/mL
- CL (systemic clearance) ([4]; 720 mg/kg): 153.7 ± 62.35 mL/h
- Cmax (maximum concentration) ([4]; 720 mg/kg): 49290 ± 9939 ng/mL
- MRT (mean residence time) ([4]; 720 mg/kg): 37.57±4.676 H
- Tmax (time of peak concentration) ([4]; 720 mg/kg): 2.167±0.753 H
- Vd (steady-state volume of distribution) ([4]; 720 mg/kg): 5583 ± 2416 mL
- ke (elimination rate constant) ([4]; 720 mg/kg): 0.028 ± 0.003 h⁻¹
- t1/2 (half-life) ([4]; 720 mg/kg): 24.92±2.178 H
- AUC0–96 (area under the curve up to 96 h) [5]: 2549 ± 327.3 µg·h/mL
- AUC0–∞ (area under the total concentration-time curve) [5]: 2965 ± 342.8 µg·h/mL
- CL (systemic clearance) [5]: 15.34 ± 1.695 mL/h
- Cmax (maximum concentration) [5]: 235400 ± 66910 ng/mL
- MRT (mean residence time) [5]: 47.05 ± 3.529 h
- Tmax (time of peak concentration) [5]: 8.34 ± 5.16 min
- Vd (steady-state volume of distribution) [5]: 679.7 ± 114.7 mL
- compartment model fitted by the pharmacokinetic behavior [5]: two compartment model
- ke (elimination rate constant) [5]: 0.023 ± 0.004 h⁻¹
- t1/2 (half-life) [5]: 30.76 ± 4.658 h
- extent of binding to rat plasma protein (rat plasma protein; 36 mg/ml): moderately bound
- extent of binding to rat plasma protein (rat plasma protein; 9–18 mg/ml): highly bound
- Protein binding rate (single samples) (rat plasma protein; added concentration 9 mg/mL, rat serum, dialysis 48 h, 37°C, pH 7.4): 47.79% and 54.71% and 73.72% and 62.68% and 67.76% and 66.13%
- Protein binding rate, Mean (rat plasma protein; added concentration 9 mg/mL, dialysis 48 h): 62.13%
- Protein binding rate, Mean (rat plasma protein; added concentration 18 mg/mL, dialysis 48 h): 71.20%
- Protein binding rate, Mean (rat plasma protein; added concentration 36 mg/mL, dialysis 48 h): 49.00%
- reproductive toxicity [6]: no obvious reproductive toxicity
